Experimental data reported in patent publication US8785460B2, “Tricyclic compounds and use thereof” (Takeda Pharmaceutical Company Limited, priority 2008, dated 2014).
pIC50: −log10 of the molar value.

Columns and labels:
[1] = target: T1, human CRF1 receptor (Homo sapiens, UniProt P34998); experiment: Measurement of CRF Binding Inhibitory Rate (receptor binding experiment with 125I-CRF); details: human CRF1 receptor expressing CHO cellular membrane fraction, 50 pM 125I-CRF, room temperature 1.5 hr, 0.05 nM to 10 μM of compound; read-out: IC50 values (CRF binding inhibition)
T1 construct: expressed in transfected cells; host or cells: CHO cells (membrane fraction)
T1 sequence (P34998 24-415): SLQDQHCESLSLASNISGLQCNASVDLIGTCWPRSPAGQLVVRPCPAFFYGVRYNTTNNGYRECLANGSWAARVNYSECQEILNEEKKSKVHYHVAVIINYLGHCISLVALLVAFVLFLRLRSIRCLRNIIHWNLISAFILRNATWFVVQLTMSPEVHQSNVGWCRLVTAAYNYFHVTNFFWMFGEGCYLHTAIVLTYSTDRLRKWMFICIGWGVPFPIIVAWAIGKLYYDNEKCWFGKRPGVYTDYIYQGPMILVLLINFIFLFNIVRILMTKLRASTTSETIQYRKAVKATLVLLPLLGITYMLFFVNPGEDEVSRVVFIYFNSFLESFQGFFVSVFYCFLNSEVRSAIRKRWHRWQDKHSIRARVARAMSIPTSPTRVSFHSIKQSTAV

SMILES	pIC50 [1]	melting point [°C]
Cc1cc(Cl)cc(Cl)c1N1CCn2c1nc1c(Cl)ccc(C(O)(C3CC3)C3CC3)c12 [Example 426, [8-Chloro-1-(2,4-dichloro-6-methylphenyl)-2,3-dihydro-1H-imidazo[1,2-a]benzimidazol-5-yl](dicyclopropyl)methanol]	> 6.00	193 to 196
CCC(CC)c1ccc(Cl)c2nc3n(c12)CCCCN3c1cnc(C(C)=O)cc1C [Example 60, 1-{5-[10-Chloro-7-(1-ethylpropyl)-2,3,4,5-tetrahydro-1H-[1,3]diazepino[1,2-a]benzimidazol-1-yl]-4-methylpyridin-2-yl}ethanone]	> 6.00	144 to 145
CCC(OC(=O)C1CC1)c1ccc(Cl)c2nc3n(c12)CCCN3c1ncc(Cl)cc1Cl (stereo not drawn) [Example 172, 1-[9-Chloro-1-(3,5-dichloropyridin-2-yl)-1,2,3,4-tetrahydropyrimido[1,2-a]benzimidazol-6-yl]propyl cyclopropanecarboxylate]	> 6.00	154 to 155
CCC(CC)c1ccc(Cl)c2nc3n(c12)CCN3c1ccc(Cl)cc1Cl [Example 3, 8-Chloro-1-(2,4-dichlorophenyl)-5-(1-ethylpropyl)-2,3-dihydro-1H-imidazo[1,2-a]benzimidazole]	> 6.00	171 to 173
CCC(CC)c1ccc(Cl)c2nc3n(c12)CCCCN3c1ccc(S(C)(=O)=O)cc1C [Example 46, 10-Chloro-7-(1-ethylpropyl)-1-[2-methyl-4-(methylsulfonyl)phenyl]-2,3,4,5-tetrahydro-1H-[1,3]diazepino[1,2-a]benzimidazole]	> 6.00	170 to 171
CCC(CC)c1ccc(Cl)c2nc3n(c12)CCCCN3c1ncc(C(N)=O)cc1C [Example 340, 6-[10-Chloro-7-(1-ethylpropyl)-2,3,4,5-tetrahydro-1H-[1,3]diazepino[1,2-a]benzimidazol-1-yl]-5-methylpyridine-3-carboxamide]	> 6.00	234 to 235
CCC(OC(C)=O)c1ccc(Cl)c2nc3n(c12)CCCN3c1ccc(OC)cc1Cl (stereo not drawn) [Example 260, 1-[9-Chloro-1-(2-chloro-4-methoxyphenyl)-1,2,3,4-tetrahydropyrimido[1,2-a]benzimidazol-6-yl]propyl acetate]	> 6.00	178 to 180
CCC(CC)c1ccc(Cl)c2nc3n(c12)CCCCN3c1ccc(C(N)=O)cc1C [Example 48, 4-[10-Chloro-7-(1-ethylpropyl)-2,3,4,5-tetrahydro-1H-[1,3]diazepino[1,2-a]benzimidazol-1-yl]-3-methylbenzamide]	> 6.00	185 to 186
CCC(OC(=O)C1CC1)c1ccc(Cl)c2nc3n(c12)CCCN3c1ccc(OC)cc1Cl (stereo not drawn) [Example 482, 1-[9-Chloro-1-(2-chloro-4-methoxyphenyl)-1,2,3,4-tetrahydropyrimido[1,2-a]benzimidazol-6-yl]propyl cyclopropanecarboxylate]	> 6.00	130 to 132
FC(F)(F)COC(c1ccc(Cl)c2nc3n(c12)CCCN3c1ccc(Cl)cc1Cl)C1CC1 (stereo not drawn) [Example 455, 9-Chloro-6-[cyclopropyl (2,2,2-trifluoroethoxy)methyl]-1-(2,4-dichlorophenyl)-1,2,3,4-tetrahydropyrimido[1,2-a]benzimidazole]	> 6.00	143 to 145
CCN(CC)c1cccc2nc3n(c12)CC(OC)CCN3c1ccc(Cl)cc1Cl (stereo not drawn) [Example 358, 1-(2,4-Dichlorophenyl)-N,N-diethyl-4-methoxy-2,3,4,5-tetrahydro-1H-[1,3]diazepino[1,2-a]benzimidazol-7-amine]	> 6.00	120 to 122
COc1nc(C)c(N2CCCn3c2nc2c(Cl)ccc(C(OCC(F)(F)F)C4CC4)c23)c(C)n1 (stereo not drawn) [Example 189, 9-Chloro-6-[cyclopropyl(2,2,2-trifluoroethoxy)methyl]-1-(2-methoxy-4,6-dimethylpyrimidin-5-yl)-1,2,3,4-tetrahydropyrimido[1,2-a]benzimidazole]	> 6.00	225 to 227
COc1ccc(N2CCCn3c2nc2c(Cl)ccc(C(OCC(F)F)C4CC4)c23)c(C)n1 (stereo not drawn) [Example 278, 9-Chloro-6-[cyclopropyl(2,2-difluoroethoxy)methyl]-1-(6-methoxy-2-methylpyridin-3-yl)-1,2,3,4-tetrahydropyrimido[1,2-a]benzimidazole]	> 6.00	124 to 126
CCC(OC(C)=O)c1ccc(Cl)c2nc3n(c12)CCCN3c1ccc(N(C)C)nc1C (stereo not drawn) [Example 166, 1-{9-Chloro-1-[6-(dimethylamino)-2-methylpyridin-3-yl]-1,2,3,4-tetrahydropyrimido[1,2-a]benzimidazol-6-yl}propyl acetate]	> 6.00	165 to 166
CC(=O)OC(C)c1ccc(Cl)c2nc3n(c12)CCCN3c1ccc(Cl)cc1Cl (stereo not drawn) [Example 243, 1-[9-Chloro-1-(2,4-dichlorophenyl)-1,2,3,4-tetrahydropyrimido[1,2-a]benzimidazol-6-yl]ethyl acetate]	> 6.00	204 to 206
Cc1nc(N(C)C)ccc1N1CCCn2c1nc1c(Cl)ccc(C(OC(F)F)C(F)(F)F)c12 (stereo not drawn) [Example 298, 5-{9-Chloro-6-[1-(difluoromethoxy)-2,2,2-trifluoroethyl]-3,4-dihydropyrimido[1,2-a]benzimidazol-1(2H)-yl}-N,N,6-trimethylpyridin-2-amine]	> 6.00	233 to 235
CC/C(=N\OC(F)F)c1ccc(Cl)c2nc3n(c12)CCCN3c1c(C)nc(OC)nc1C [Example 193, (1E)-1-[9-Chloro-1-(2-methoxy-4,6-dimethylpyrimidin-5-yl)-1,2,3,4-tetrahydropyrimido[1,2-a]benzimidazol-6-yl]propan-1-one O-(difluoromethyl)oxime]	> 6.00	199 to 200
CCC(CC)c1ccc(Cl)c2nc3n(c12)CCCCN3c1ccc(C(=O)NC)cc1C [Example 49, 4-[10-Chloro-7-(1-ethylpropyl)-2,3,4,5-tetrahydro-1H-[1,3]diazepino[1,2-a]benzimidazol-1-yl]-N,3-dimethylbenzamide]	> 6.00	127 to 128
CCC(CC)c1ccc(Cl)c2nc3n(c12)CCN3c1ccc(C(N)=O)cc1Cl [Example 15, 3-Chloro-4-[8-chloro-5-(1-ethylpropyl)-2,3-dihydro-1H-imidazo[1,2-a]benzimidazol-1-yl]benzamide]	> 6.00	225 to 229
Cc1nc(OC(F)F)ccc1N1CCCn2c1nc1c(Cl)ccc(C(OC(F)F)C(F)(F)F)c12 (stereo not drawn) [Example 290, 9-Chloro-1-[6-(difluoromethoxy)-2-methylpyridin-3-yl]-6-[1-(difluoromethoxy)-2,2,2-trifluoroethyl]-1,2,3,4-tetrahydropyrimido[1,2-a]benzimidazole]	> 6.00	145 to 148
CCC(CC)c1ccc(Cl)c2nc3n(c12)CCCCN3c1ccc(Cl)cc1Cl [Example 21, 10-Chloro-1-(2,4-dichlorophenyl)-7-(1-ethylpropyl)-2,3,4,5-tetrahydro-1H-[1,3]diazepino[1,2-a]benzimidazole]	> 6.00	160 to 162
CCC(OCC1CC1)c1ccc(Cl)c2nc3n(c12)CCCN3c1ccc(Cl)cc1Cl (stereo not drawn) [Example 236, 9-Chloro-6-[1-(cyclopropylmethoxy)propyl]-1-(2,4-dichlorophenyl)-1,2,3,4-tetrahydropyrimido[1,2-a]benzimidazole]	> 6.00	159 to 160
Cc1cc(OC(C)C)ccc1N1CCCn2c1nc1c(Cl)ccc(C(OC(F)F)C(F)(F)F)c12 (stereo not drawn) [Example 357, 9-Chloro-6-[1-(difluoromethoxy)-2,2,2-trifluoroethyl]-1-[2-methyl-4-(propan-2-yloxy)phenyl]-1,2,3,4-tetrahydropyrimido[1,2-a]benzimidazole]	> 6.00	198 to 204
CCC(OC(=O)C1CC1)c1ccc(Cl)c2nc3n(c12)CCCN3c1ccc(Cl)cc1Cl (stereo not drawn) [Example 431, 1-[9-Chloro-1-(2,4-dichlorophenyl)-1,2,3,4-tetrahydropyrimido[1,2-a]benzimidazol-6-yl]propyl cyclopropanecarboxylate]	> 6.00	159 to 161
CCN(CC)c1cccc2nc3n(c12)CCCCCN3c1ccc(Cl)cc1Cl [Example 102, 1-(2,4-Dichlorophenyl)-N,N-diethyl-1,2,3,4,5,6-hexahydro[1,3]diazocino[1,2-a]benzimidazol-8-amine]	> 6.00	120 to 121
CCC(CC(C)=O)c1ccc(Cl)c2nc3n(c12)CCCN3c1ccc(Cl)cc1Cl (stereo not drawn) [Example 452, 4-[9-Chloro-1-(2,4-dichlorophenyl)-1,2,3,4-tetrahydropyrimido[1,2-a]benzimidazol-6-yl]hexan-2-one]	> 6.00	195 to 197
CCC(CC)c1ccc(Cl)c2nc3n(c12)CCCC(=O)N3c1ccc(Cl)cc1Cl [Example 22, 10-Chloro-1-(2,4-dichlorophenyl)-7-(1-ethylpropyl)-4,5-dihydro-1H-[1,3]diazepino[1,2-a]benzimidazol-2(3H)-one]	> 6.00	135 to 137
